Source: patent publication US20260217701A1, “SELECTIVE BET INHIBITORS AND USES THEREOF” (Tay Therapeutics Limited, priority 2022, published 2026)
Several values for one entry are separate records, joined by “and”; a condition that tells them apart may be missing. Identical values can stand only once.

Tested on: imiquimod-induced psoriasis
Assay: Imiquimod-induced psoriasis model
Assay type: in vivo, mice
Set-up: Spleen Weight / Spleen Weight Ratio: unit not given here
Settings: for PASI Scores / Number Licking / Number Licking + Scratching / Number Scratching / Distance Traveled / Number Rearings / Spleen Weight / Spleen Weight Ratio: individual animals; for Distance Traveled / Number Rearings: behavioral evaluation; for Spleen Weight / Spleen Weight Ratio: mice
Method in brief: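 Mice given topical imiquimod (5% cream) daily on depilated backs Days 1–14; Compound A in 5% DMSO/40% PEG-400/55% saline from Day 8, clobetasol topical as reference. Daily PASI (erythema, induration, peeling, each 0–4, summed) Days 8–15; spleen weight, open-field behaviour, serum IL-1B, IL-6, IL-17, TNF-α, IL-22, IL-23 at Day 15.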

[1] = IMI-psoriasis model, behavioral evaluation D15, 1 mg/kg
[2] = IMI-psoriasis model, behavioral evaluation D15, 3 mg/kg
[3] = IMI-psoriasis model, behavioral evaluation D15, 10 mg/kg

## COCCn1cc(-c2ccccc2)c(-c2cn(C)c(=O)c3[nH]c(-c4cnn(C(F)(F)F)c4)cc23)cc1=O [Compound B, 4-(1-(2-methoxyethyl)-2-oxo-5-phenyl-1,2-dihydropyridin-4-yl)-6-methyl-2-(1-(trifluoromethyl)-1H-pyrazol-4-yl)-1,6-dihydro-7H-pyrrolo[2,3-c]pyridin-7-one]
IMI + Compound B 1 mg/kg, D13
  PASI Scores: 4 (2×) and 5 (3×) and 8 and 7 (2×)
IMI + Compound B 1 mg/kg, D14
  PASI Scores: 4 (2×) and 7 (2×) and 6 (3×) and 5
IMI + Compound B 1 mg/kg, D15
  PASI Scores: 5 (3×) and 7 and 4 and 6 (2×) and 3
IMI + Compound B 3 mg/kg, D8 (day treatment started)
  PASI Scores: 8 and 7 (4×)
IMI + Compound B 3 mg/kg, D9
  PASI Scores: 7 and 8 and 6 (3×)
IMI + Compound B 3 mg/kg, D10
  PASI Scores: 6 (2×) and 8 and 5 and 4
IMI + Compound B 3 mg/kg, D11
  PASI Scores: 5 (4×) and 6
IMI + Compound B 3 mg/kg, D12
  PASI Scores: 4 and 6 (3×)
IMI + Compound B 3 mg/kg, D13
  PASI Scores: 6 and 4 (3×)
IMI + Compound B 3 mg/kg, D14
  PASI Scores: 6 and 4 and 5 and 3
IMI + Compound B 3 mg/kg, D15
  PASI Scores: 4 and 5 and 3 and 1
IMI-psoriasis model, D1, 1 mg/kg, per cage (two animals)
  Use Enrichment D1: 4.0
IMI-psoriasis model, D1, 3 mg/kg, per cage (two animals)
  Use Enrichment D1: 4.0
IMI-psoriasis model, D1, 10 mg/kg, per cage (two animals)
  Use Enrichment D1: 4.0
IMI-psoriasis model, D8, 1 mg/kg, per cage (two animals)
  Use Enrichment D8: 1.0 and 1.5
IMI-psoriasis model, D9, 1 mg/kg, per cage (two animals)
  Use Enrichment D9: 1.5 and 2.0 and 1.0
IMI-psoriasis model, D10, 1 mg/kg, per cage (two animals)
  Use Enrichment D10: 2.5 and 1.5 and 3.0
IMI-psoriasis model, D11, 1 mg/kg, per cage (two animals)
  Use Enrichment D11: 3.0 and 3.5 and 2.5
IMI-psoriasis model, D11, 3 mg/kg, per cage (two animals)
  Use Enrichment D11: 2.0 and 4.0 and 2.5
IMI-psoriasis model, D12, 1 mg/kg, per cage (two animals)
  Use Enrichment D12: 1.5 and 1.0
IMI-psoriasis model, D13, 10 mg/kg, per cage (two animals)
  Use Enrichment D13: 4.0 and 2.5
IMI-psoriasis model, D14, 1 mg/kg, per cage (two animals)
  Use Enrichment D14: 2.5 and 2.0 and 1.5
IMI-psoriasis model, D14, 3 mg/kg, per cage (two animals)
  Use Enrichment D14: 3.0 and 4.0 and 3.5 and 2.5
IMI-psoriasis model, D14, 10 mg/kg, per cage (two animals)
  Use Enrichment D14: 4.0
IMI-psoriasis model, D15, 3 mg/kg, per cage (two animals)
  Use Enrichment D15: 3.5 and 4.0 and 3.0
IMI-psoriasis model, D15, 10 mg/kg, per cage (two animals)
  Use Enrichment D15: 4.0
[1]
  Number Licking: 3 (4×) and 2 and 7 and 4 and 5
  Number Licking + Scratching: 5 (3×) and 8 and 3 and 4 and 7 and 6
  Number Scratching: 2 (2×) and 5 and 0 (3×) and 1 and 3
[2]
  Number Licking: 8 (2×) and 9 and 3 (4×)
  Number Licking + Scratching: 8 and 11 and 4 and 3 (2×) and 5 and 13
  Number Scratching: 0 (3×) and 2 (2×) and 1 and 5
[3]
  Number Licking: 6 and 4 and 2 (4×) and 3
  Number Licking + Scratching: 6 and 5 and 2 (2×) and 3 (3×)
  Number Scratching: 0 (4×) and 1 (3×)
IMI-psoriasis model, 1 mg/kg
  Distance Traveled: 15 m and 7 m and 11 m and 8 m and 9 m and 13 m and 14 m (2×)
  Number Rearings: 44 and 23 and 47 and 19 and 29 and 27 and 87 and 49
  Spleen Weight: 255.35 and 280.52 and 235.85 and 298.12 and 227.47 and 255.31 and 244.77 and 316.12
  Spleen Weight Ratio: 1562.73 and 1912.20 and 1309.55 and 1793.74 and 1315.62 and 1552.98 and 1518.42 and 1820.97
IMI-psoriasis model, 3 mg/kg
  Distance Traveled: 17 m and 9 m and 23 m and 12 m and 15 m and 11 m and 13 m
  Number Rearings: 27 and 38 and 121 and 47 and 31 and 60 and 57
  Spleen Weight: 244.98 and 212.34 and 270.73 and 183.55 and 232.29 and 224.28 and 206.85 and 220.98
  Spleen Weight Ratio: 1777.79 and 1257.94 and 1699.50 and 1016.90 and 1343.49 and 1313.11 and 1297.68 and 1278.08
IMI-psoriasis model, 10 mg/kg
  Distance Traveled: 15 m and 14 m and 16 m and 7 m (3×) and 6 m
  Number Rearings: 44 (2×) and 71 and 6 and 11 and 1 and 13
  Spleen Weight: 184.80 and 169.45 and 184.96 and 119.62 and 101.24 and 156.25 and 130.42 and 159.58
IMI-psoriasis model, mean D1-D8, 1 mg/kg, per cage (two animals)
  Use Enrichment Mean D1-D8: 2.50 and 2.75
IMI-psoriasis model, mean D1-D8, 3 mg/kg, per cage (two animals)
  Use Enrichment Mean D1-D8: 2.50 and 2.75 and 2.25
IMI-psoriasis model, mean D1-D8, 10 mg/kg, per cage (two animals)
  Use Enrichment Mean D1-D8: 2.50 and 2.75 and 2.00 and 3.00
IMI-psoriasis model, mean D8-D15, 1 mg/kg, per cage (two animals)
  Use Enrichment Mean D8-D15: 2.57 and 2.07 and 2.43 and 2.14
IMI-psoriasis model, mean D8-D15, 10 mg/kg, per cage (two animals)
  Use Enrichment Mean D8-D15: 3.50 and 2.29 and 1.93 and 3.07
